Here are results for 2 molecules from patent US5431896A, “Microbial immunoregulant” (Merck & Co., Inc., priority 1992, dated 1995).

Data set [1] concerns mouse T lymphocytes. Briefly: T-cell proliferation assay (ionomycin plus PMA induced T-cell stimulation, tritiated thymidine uptake). It counts as cell-based, C57B1/6 mice. Particulars: for immunosuppressive activity by the T-cell proliferation assay: qualitative statement. Here is the method:
The principle of this assay is to measure the proliferation of mouse T lymphocytes stimulated with the combination of ionomycin plus PMA. A positive sample in this assay will inhibit T-cell proliferation, as indicated by reduced tritiated thymidine uptake.
Cells were pelleted by centrifugation at 1500 rpm for 8 minutes. Contaminating red cells were removed by treating the pellet with ammonium chloride lysing buffer (GIBCO) for 2 minutes at 4° C. Cold medium was added and cells were again centrifuged at 1500 rpm for 8 minutes. T lymphocytes were then isolated by separation of the cell suspension on nylon wool columns as follows: Nylon wool columns were prepared by packing approximately 4 grams of washed and dried nylon wool into 20 ml plastic syringes. The columns were sterilized by autoclaving at 250° F. for 30 minutes. Nylon wool columns were wetted with warm (37° C.) culture medium and rinsed with the same medium. Washed spleen cells resuspended in warm medium were slowly applied to the nylon wool. The columns were then incubated in an upright position at 37° C. for 1 hour. Non-adherent T lymphocytes were eluted from the columns with warm culture medium and the cell suspensions were spun as above.
The cell suspension was immediately distributed into 96 well flat-bottom microculture plates (Costar) at 200 μl/well. […] The proliferation of T lymphocytes was assessed by measurement of tritiated thymidine incorporation. After 44 hours of culturing, the cells were pulse-labelled with 2 μCi/well of tritiated thymidine (NEN, Cambridge, Mass.). After another 4 hours of incubation, cultures were harvested on glass fiber filters using a multiple sample harvester. Radioactivity of filter discs corresponding to individual wells was measured by standard liquid scintillation counting methods (Betacounter). Mean counts per minute of replicate wells were calculated and the results expressed as percent inhibition of tritiated thymidine uptake (proliferation) as follows: [formula]

A short description of data set [2]: Solubility. Particulars: methanol. The class given is physicochemical.
For data set [3] the following is noted: reputed; EPO Publication No. 0184162; cited from earlier work.

“And” between values parts separate entries of the source, which are not always exact repeats. Equal values may be shown once. “Also recorded” adds a separate entry of the source. Read-outs that look alike come from different tables or passages of the source.

For the molecule `CO[C@H]1C[C@@H](C)C/C(C)=C/[C@@H](C)C(=O)C[C@H](O)[C@@H](C)[C@@H](/C(C)=C/[C@@H]2CC[C@@H](O)[C@H](O)C2)OC(=O)[C@@H]2CCCCN2C(=O)C(=O)[C@]2(O)O[C@H]1[C@@H](OC)C[C@H]2C` [L-687,819], in data set [1] (Mus musculus, T-lymphocyte, 48 h, read-out: IC50 (inhibition of T-cell proliferation)), the IC50 was 0.007 µg/mL and 9.17 nM. Also, the inhibition at 0.00011 µg/mL in data set [1] (Mus musculus, T-lymphocyte, L-687,819 0.11 ng/ml, 48 h) is 9.5%. The inhibition at 0.00026 µg/mL in data set [1] (Mus musculus, T-lymphocyte, L-687,819 0.26 ng/ml, 48 h) was found to be 9.1%. For the same molecule, the inhibition at 0.00058 µg/mL in data set [1] (Mus musculus, T-lymphocyte, L-687,819 0.58 ng/ml, 48 h) amounted to 0%. Moreover, in data set [1] (Mus musculus, T-lymphocyte, L-687,819 1.3 ng/ml, 48 h), the inhibition at 0.0013 µg/mL was 0%. For the same molecule, the inhibition at 0.0029 µg/mL in data set [1] (Mus musculus, T-lymphocyte, L-687,819 2.9 ng/ml, 48 h) came to 0%. Moreover, the inhibition at 0.0044 µg/mL in data set [1] (Mus musculus, T-lymphocyte, L-687,819 4.4 ng/ml, 48 h) came to 15.9%. In data set [1] (Mus musculus, T-lymphocyte, L-687,819 6.6 ng/ml, 48 h), the inhibition at 0.0066 µg/mL was 51.3%. In addition, in data set [1] (Mus musculus, T-lymphocyte, L-687,819 10 ng/ml, 48 h, read-out: % Inhibition of T-cell proliferation), the inhibition at 0.01 µg/mL was 76.1%. In addition, the inhibition at 0.1 µg/mL in data set [1] (Mus musculus, T-lymphocyte, L-687,819 100 ng/ml, 48 h) was 98.8%. Moreover, the “Inhibition of proliferation on addition of recombinant human IL2” value in data set [1] (addition of 50 units/ml recombinant human IL2) is listed as “reversed”. For the same molecule, the “immunosuppressive activity by the T-cell proliferation assay” value in data set [1] is on record as “positive immunosuppressive activity; also recorded: positive inhibition of T-cell activation”; in data set [1] (listed as minor component), “shown to possess immunosuppressive activity”. Moreover, the Solubility result in data set [2] is “Solubility in methanol”.
Take `C=CC[C@@H]1/C=C(\C)C[C@H](C)C[C@H](OC)[C@H]2O[C@@](O)(C(=O)C(=O)N3CCCC[C@H]3C(=O)O[C@H](/C(C)=C/[C@@H]3CC[C@@H](O)[C@H](OC)C3)[C@H](C)[C@@H](O)CC1=O)[C@H](C)C[C@@H]2OC` [FK-506, reference compound]: the inhibition at 0.01 µg/mL in data set [1] (Mus musculus, T-lymphocyte, 48 h, read-out: inhibition of T-cell proliferation by standard) is 99%. In addition, the “potency relative to cyclosporin” value in data set [3] was 100 times.
